Experimental data from patent publication US20240199605A1, “SMALL MOLECULAR INHIBITORS OF NF-kB INDUCING KINASE” (Janssen Pharmaceutica NV, priority 2019, published 2024).

Key:
[1] = molecular target: recombinant human NF-kappaB-inducing kinase (NIK/MAP3K14) (Homo sapiens (Human), UniProt Q99558); assay: Inhibition of auto-phosphorylation of recombinant human NIK/MAP3K14 (AlphaScreen); type: biochemical; conditions: NIK auto-phosphorylation, 5 μM ATP, 1 nM NIK, 2 h at 25° C.; average of values
How it was run: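 GST-tagged NIK (1 nM) auto-phosphorylated with 5 μM ATP for 2 h at 25° C. in 50 mM Tris pH 7.5, 5 mM MgCl2, 1 mM EGTA, 1 mM DTT, 0.1 mM Na3VO4, 0.01% Tween 20 (0.7% DMSO). Detected by AlphaScreen via anti-phospho-IKK Ser176/180 antibody; IC50 from sigmoidal fit of % inhibition versus log concentration.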

[2] = system: p-IKKα levels in L363 (NIK translocated multiple myeloma) cells; assay: Effect of compounds on p-IKKα levels in L363 cells (AlphaLISA SureFire Ultra); type: cell-based, human; conditions: Homo sapiens, L-363, 6 h, BAFF stimulated, MG132, 6 h, average of values, read-out: Assay 2 IC50
How it was run: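 Inhibition of p-IKKα (Ser176/180) read by AlphaLISA after 6 h, 37 °C compound exposure (11-point 1:3 series, 0.3% DMSO) of L363 cells pre-incubated overnight ± 250 ng/ml BAFF and plated ± BAFF ± 10 μM MG132. Normalised to BAFF/MG132/DMSO and unstimulated controls; IC50 by sigmoidal fitting, duplicates.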

Chain of recombinant human NF-kappaB-inducing kinase (NIK/MAP3K14) (Q99558 whole entry): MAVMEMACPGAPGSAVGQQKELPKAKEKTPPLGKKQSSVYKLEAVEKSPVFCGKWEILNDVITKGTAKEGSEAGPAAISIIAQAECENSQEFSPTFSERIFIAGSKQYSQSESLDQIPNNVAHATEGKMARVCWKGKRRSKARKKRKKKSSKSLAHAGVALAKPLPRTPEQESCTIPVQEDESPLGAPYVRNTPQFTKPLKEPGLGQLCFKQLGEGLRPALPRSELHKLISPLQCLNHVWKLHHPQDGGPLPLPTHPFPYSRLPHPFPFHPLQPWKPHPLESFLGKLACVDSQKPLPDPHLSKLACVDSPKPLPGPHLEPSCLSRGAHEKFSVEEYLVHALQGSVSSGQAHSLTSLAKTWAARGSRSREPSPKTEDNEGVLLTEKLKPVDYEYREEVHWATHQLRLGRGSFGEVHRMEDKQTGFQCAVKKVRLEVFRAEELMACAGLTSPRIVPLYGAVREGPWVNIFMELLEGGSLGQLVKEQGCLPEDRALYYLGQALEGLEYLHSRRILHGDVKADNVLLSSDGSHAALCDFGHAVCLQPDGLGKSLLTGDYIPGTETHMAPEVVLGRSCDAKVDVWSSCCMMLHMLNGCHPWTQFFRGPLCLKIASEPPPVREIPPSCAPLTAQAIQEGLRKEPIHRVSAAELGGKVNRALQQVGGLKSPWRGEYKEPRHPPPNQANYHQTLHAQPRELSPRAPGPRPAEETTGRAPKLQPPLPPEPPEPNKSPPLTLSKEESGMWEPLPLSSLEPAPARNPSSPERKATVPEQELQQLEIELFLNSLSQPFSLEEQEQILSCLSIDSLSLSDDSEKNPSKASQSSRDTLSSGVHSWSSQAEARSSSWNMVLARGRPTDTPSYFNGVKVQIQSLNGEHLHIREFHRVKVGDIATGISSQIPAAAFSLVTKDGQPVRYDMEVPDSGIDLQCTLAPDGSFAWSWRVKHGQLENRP

IC50 [1] [nM] | IC50 [2] [nM] | SMILES
86 | 560 | Cc1ncc(C#N)c2ccc(-c3cccc(C#C[C@]4(O)CCN(C)C4=O)c3)nc12 [Example 251, (R)-2-(3-((3-Hydroxy-1-methyl-2-oxopyrrolidin-3-yl)ethynyl)phenyl)-8-methyl-1,7-naphthyridine-5-carbonitrile]
1210 | > 5000 | CN1CC[C@@](O)(C#Cc2cccc(-c3ccc4c(c3)c(N)nn4C(=O)OC(C)(C)C)c2)C1=O [Example 169, (R)-tert-Butyl 3-amino-5-[3-[2-(3-hydroxy-1-methyl-2-oxo-pyrrolidin-3-yl)ethynyl]phenyl]indazole-1-carboxylate]
1.9 | 26 | CN1CC[C@@](O)(C#Cc2cccc(-c3cc(OCCC(F)(F)F)c4ncnc(N)c4n3)c2)C1=O [Example 306, (R)-3-[2-[3-[4-Amino-8-(3,3,3-trifluoropropoxy)pyrido[3,2-d]pyrimidin-6-yl]phenyl]ethynyl]-3-hydroxy-1-methyl-pyrrolidin-2-one]
≤ 0.5 | 7.7 | CN1CC[C@@](O)(C#Cc2cccc(-c3ncc4c(-c5cn[nH]c5)cnc(N)c4n3)c2)C1=O [Example 124, (R)-3-[2-[3-[8-Amino-5-(1H-pyrazol-4-yl)pyrido[3,4-d]pyrimidin-2-yl]phenyl]ethynyl]-3-hydroxy-1-methyl-pyrrolidin-2-one]
2.2 | 64 | CN1CC[C@@](O)(C#Cc2cccc(-c3cc(Oc4cnn(C(F)F)c4)c4ncnc(N)c4n3)c2)C1=O [Example 305, (R)-3-[2-[3-[4-Amino-8-[1-(difluoromethyl)pyrazol-4-yl]oxy-pyrido[3,2-d]pyrimidin-6-yl]phenyl]ethynyl]-3-hydroxy-1-methyl-pyrrolidin-2-one]
56 | 930 | CN1CC[C@@](O)(C#Cc2cccc(-c3ccc4ncnc(NCC(F)F)c4n3)c2)C1=O [Example 241, (R)-3-((3-(4-((2,2-Difluoroethyl)amino)pyrido[3,2-d]pyrimidin-6-yl)phenyl)ethynyl)-3-hydroxy-1-methylpyrrolidin-2-one]
170 | 2300 | Cc1nc(N)c2nc(-c3cccc(C#C[C@@]4(O)CCN(C)C4=O)c3)ccc2n1 [Example 7, (S)-3-((3-(4-Amino-2-methylpyrido[3,2-d]pyrimidin-6-yl)phenyl)ethynyl)-3-hydroxy-1-methylpyrrolidin-2-one]
385 | 2820 | Cc1nc(N)c2nc(-c3cccc(C#C[C@@]4(O)C[C@@H](C)N(C)C4=O)c3)ccc2n1 [Example 267, (3S,5R)-3-((3-(4-Amino-2-methylpyrido[3,2-d]pyrimidin-6-yl)phenyl)ethynyl)-3-hydroxy-1,5-dimethylpyrrolidin-2-one]
210 | 450 | CC(=O)Nc1nc(C)nc2ccc(-c3cccc(C#C[C@]4(O)CCN(C)C4=O)c3)nc12 [Example 258, (R)—N-(6-(3-((3-Hydroxy-1-methyl-2-oxopyrrolidin-3-yl)ethynyl)phenyl)-2-methylpyrido[3,2-d]pyrimidin-4-yl)acetamide]
4030 | > 5000 | Cc1nc(N)c2nc(-c3cccc(C#C[C@](C)(O)c4cnccn4)c3)ccc2n1 [Example 201, (S)-4-[3-(4-Amino-2-methyl-pyrido[3,2-d]pyrimidin-6-yl)phenyl]-2-pyrazin-2-yl-but-3-yn-2-ol]
10 | 280 | CC(C)Cc1ccc(C#C[C@]2(O)CCN(C)C2=O)cc1-c1ncc2ccnc(N)c2n1 [Example 54, (R)-3-((3-(8-Aminopyrido[3,4-d]pyrimidin-2-yl)-4-isobutylphenyl)ethynyl)-3-hydroxy-1-methylpyrrolidin-2-one]
22 | 660 | Cc1nc(N)c2nc(-c3cccc(C#C[C@@]4(O)C(=O)N(C)C[C@H]4C)c3)ccc2n1 (stereo in doubt) [Example 292, (3R,4R*)-3-((3-(4-Amino-2-methylpyrido[3,2-d]pyrimidin-6-yl)phenyl)ethynyl)-3-hydroxy-1,4-dimethylpyrrolidin-2-one]
1 | 23 | Cc1ccc(C#C[C@]2(O)CCN(C)C2=O)cc1-c1ncc2ncnc(N)c2n1 [Example 188, (R)-3-((3-(8-Aminopyrimido[5,4-d]pyrimidin-2-yl)-4-methylphenyl)ethynyl)-3-hydroxy-1-methylpyrrolidin-2-one]
0.7 | 40 | CN1CC[C@@](O)(C#Cc2cccc(-c3nc(C(F)(F)F)c4ccnc(N)c4n3)c2)C1=O [Example 38, (R)-3-((3-(8-Amino-4-(trifluoromethyl)pyrido[3,4-d]pyrimidin-2-yl)phenyl)ethynyl)-3-hydroxy-1-methylpyrrolidin-2-one]
60 | 1190 | CN1CC[C@@](O)(C#Cc2cccc(-c3ncc4cc[nH]c(=O)c4n3)c2)C1=O [Example 30, (R)-2-[3-[2-(3-Hydroxy-1-methyl-2-oxo-pyrrolidin-3-yl)ethynyl]phenyl]-7H-pyrido[3,4-d]pyrimidin-8-one]
300 | > 5000 | [2H]c1nc(N)c2nc(-c3cccc(C#C[C@]4(O)C(=O)N(C)[C@H]5C[C@H]54)c3)ccc2n1 [Example 275, (1S,4S,5R)-4-((3-(4-Aminopyrido[3,2-d]pyrimidin-6-yl-2-d)phenyl)ethynyl)-4-hydroxy-2-methyl-2-azabicyclo[3.1.0]hexan-3-one]
≤ 0.5 | 70 | C[C@@](O)(C#Cc1cccc(-c2ccc3ccnc(N)c3n2)c1)c1nccs1 [Example 90, (R)-4-[3-(8-Amino-1,7-naphthyridin-2-yl)phenyl]-2-thiazol-2-yl-but-3-yn-2-ol]
≤ 0.5 | 6.5 | C[C@@](O)(C#Cc1cccc(-c2ccc3ncnc(N)c3n2)c1)c1nccs1 [Example 93, (R)-4-(3-(4-Aminopyrido[3,2-d]pyrimidin-6-yl)phenyl)-2-(thiazol-2-yl)but-3-yn-2-ol]
7.9 | 130 | Cc1cc(-c2cccc(C#C[C@]3(O)CCN(C)C3=O)c2)nc2c(C)ncnc12 [Example 250, (R)-3-((3-(4,8-Dimethylpyrido[3,2-d]pyrimidin-6-yl)phenyl)ethynyl)-3-hydroxy-1-methylpyrrolidin-2-one]
1.9 | 200 | CN1CC[C@@](O)(C#Cc2cccc(-c3ccc4ccnc(N)c4c3)c2)C1=O [Example 36, (R)-3-[2-[3-(1-Amino-7-isoquinolyl)phenyl]ethynyl]-3-hydroxy-1-methyl-pyrrolidin-2-one]
0.6 | 64 | C[C@@](O)(C#Cc1cccc(-c2ccc3ncnc(N)c3c2)c1)c1nccs1 [Example 105, (R)-4-[3-(4-Aminoquinazolin-6-yl)phenyl]-2-thiazol-2-yl-but-3-yn-2-ol]
59 | 1960 | CC(C)c1ncnc2ccc(-c3cccc(C#C[C@]4(O)CCN(C)C4=O)c3)nc12 [Example 272, (R)-3-Hydroxy-3-((3-(4-isopropylpyrido[3,2-d]pyrimidin-6-yl)phenyl)ethynyl)-1-methylpyrrolidin-2-one]
6.8 | 400 | CN1CC[C@@](O)(C#Cc2cccc(-c3ncc4c(CN5CCCC5)cnc(N)c4n3)c2)C1=O [Example 133, (R)-3-[2-[3-[8-Amino-5-(pyrrolidin-1-ylmethyl)pyrido[3,4-d]pyrimidin-2-yl]phenyl]ethynyl]-3-hydroxy-1-methyl-pyrrolidin-2-one]
≤ 0.5 | 6.2 | CN1CC[C@@](O)(C#Cc2cccc(-c3ncc4c(-c5cnn(CCCC#N)c5)cnc(N)c4n3)c2)C1=O [Example 140, (R)-4-[4-[8-Amino-2-[3-[2-(3-hydroxy-1-methyl-2-oxo-pyrrolidin-3-yl)ethynyl]phenyl]pyrido[3,4-d]pyrimidin-5-yl]pyrazol-1-yl]butanenitrile]
170 | > 5000 | CN1CC[C@@](O)(C#Cc2cccc(-c3ccc4ncnc(C(F)(F)F)c4n3)c2)C1=O [Example 278, (R)-3-Hydroxy-1-methyl-3-((3-(4-(trifluoromethyl)pyrido[3,2-d]pyrimidin-6-yl)phenyl)ethynyl)pyrrolidin-2-one]
8 | 910 | Nc1nccc2cnc(-c3cccc(C#CC4(O)CCN(CC(F)(F)F)C4=O)c3)nc12 (stereo in doubt) [Example 72, (R)-3-[2-[3-(8-Aminopyrido[3,4-d]pyrimidin-2-yl)phenyl]ethynyl]-3-hydroxy-1-(2,2,2-trifluoroethyl)pyrrolidin-2-one]
≤ 0.5 | 6.9 | CNc1cc(-c2cccc(C#C[C@]3(O)CCN(C)C3=O)c2)nc2c(N)ncnc12 [Example 296, (R)-3-[2-[3-[4-Amino-8-(methylamino)pyrido[3,2-d]pyrimidin-6-yl]phenyl]ethynyl]-3-hydroxy-1-methyl-pyrrolidin-2-one]
0.7 | 43 | CN1CC[C@@](O)(C#Cc2cccc(-c3cc4c(N)nccc4cn3)c2)C1=O [Example 119, (R)-3-[2-[3-(5-Amino-2,6-naphthyridin-3-yl)phenyl]ethynyl]-3-hydroxy-1-methyl-pyrrolidin-2-one]
≤ 0.5 | 18 | Cc1n[nH]c(C)c1-c1cnc(N)c2nc(-c3cccc(C#C[C@]4(O)CCN(C)C4=O)c3)ncc12 [Example 125, (R)-3-[2-[3-[8-Amino-5-(3,5-dimethyl-1H-pyrazol-4-yl)pyrido[3,4-d]pyrimidin-2-yl]phenyl]ethynyl]-3-hydroxy-1-methyl-pyrrolidin-2-one]
